Test results published in ChEMBL document CHEMBL1152314, “Antineoplastic agents. 565. Synthesis of combretastatin D-2 phosphate and dihydro-combretastatin D-2” (J Nat Prod, 2009).
≈ marks a conversion by molar mass, not a printed value. Calls of active or inactive are those of the source. The calls are words filed in the database; no cut-off is given here.

Experiments:
[1] = tested on: P388; experiment: Cytotoxicity against mouse P388 cells; format: functional; conditions: read-out: ED50 (the source's name)
[2] = tested on: Staphylococcus aureus; experiment: Antimicrobial activity against Staphylococcus aureus ATCC 29213; format: functional, organism-based
[3] = tested on: Escherichia coli; experiment: Antimicrobial activity against Escherichia coli ATCC 25922; format: functional, organism-based
[4] = tested on: Enterococcus faecalis; experiment: Antimicrobial activity against Enterococcus faecalis ATCC 29212; format: functional, organism-based
[5] = tested on: Neisseria gonorrhoeae; experiment: Antimicrobial activity against Neisseria gonorrhoeae ATCC 49226; format: functional, organism-based
[6] = tested on: Cryptococcus neoformans; experiment: Antimicrobial activity against Cryptococcus neoformans ATCC 90112; format: functional, organism-based
[7] = tested on: Enterobacter cloacae; experiment: Antimicrobial activity against Enterobacter cloacae ATCC 13047; format: functional, organism-based
[8] = tested on: Micrococcus luteus; experiment: Antimicrobial activity against Micrococcus luteus Presque Isle 456; format: functional, organism-based
[9] = tested on: Candida albicans; experiment: Antimicrobial activity against Candida albicans ATCC 90028; format: functional, organism-based
[10] = tested on: Stenotrophomonas maltophilia; experiment: Antimicrobial activity against Stenotrophomonas maltophilia ATCC 13637; format: functional, organism-based
[11] = tested on: Streptococcus pneumoniae; experiment: Antimicrobial activity against Streptococcus pneumoniae ATCC 6303; format: functional, organism-based
[12] = Cytotoxicity against human prostate cancer cells; format: functional; conditions: Cancer cell lines
[13] = Cytotoxicity against human breast cancer cells; format: functional; conditions: Cancer cell lines
[14] = Cytotoxicity against human colon cancer cells; format: functional; conditions: Cancer cell lines
[15] = Cytotoxicity against human brain cancer cells; format: functional; conditions: Cancer cell lines
[16] = Cytotoxicity against human lung cancer cells; format: functional; conditions: Cancer cell lines
[17] = Solubility in water at 25 degC; format: physicochemical
[18] = Cytotoxicity against human pancreatic cancer cells; format: functional; conditions: Cancer cell lines
[19] = Inhibition of tubulin polymerization

SMILES | EC50 [1] [µg/mL] | GI50 [12] [µg/mL] | GI50 [13] [µg/mL] | GI50 [14] [µg/mL] | GI50 [15] [µg/mL] | GI50 [16] [µg/mL] | GI50 [18] [µg/mL] | also measured
COc1ccc(/C=C\c2cc(OC)c(OC)c(OC)c2)cc1O [COMBRETASTATIN A4] | 0.0034 (≈ 0.0107 µM) |  |  |  |  |  |  | 
O=C(CCc1ccc(OCc2ccccc2)c(O)c1)OC/C=C\c1ccc(Br)cc1 | > 100 |  |  |  |  |  |  | 
O=C1CCc2ccc(O)c(c2)Oc2ccc(cc2)CCCO1 [CORNICULATOLIDE A] | > 100 |  |  |  |  |  |  | Activity [2]: inactive; Activity [3]: inactive; Activity [4]: inactive; Activity [5]: inactive; Activity [6]: inactive; Activity [7]: inactive; Activity [8]: inactive; Activity [9]: inactive; Activity [10]: inactive; Activity [11]: inactive
O=C1CCc2ccc(OP(=O)([O-])[O-])c(c2)Oc2ccc(cc2)/C=C\CO1.[Li+].[Li+] | 27.1 | 4.3 | 26.1 | 27.5 | 37.9 | 14.4 | 35.9 | solubility ([17]; buffer): 20 mg/mL
O=C1CCc2ccc(OP(=O)([O-])[O-])c(c2)Oc2ccc(cc2)/C=C\CO1.[Na+].[Na+] | 23.9 | 18.2 | 30.5 | 25.5 | 36.3 | 13.3 | 22.1 | solubility ([17]; buffer): > 70 mg/mL
COc1ccc2cc1Oc1ccc(cc1)/C=C\COC(=O)CC2 | 8.1 (≈ 26.1 µM) | 5.6 (≈ 18 µM) | 0.83 (≈ 2.67 µM) | 9.4 (≈ 30.3 µM) | 2.2 (≈ 7.09 µM) | 6.6 (≈ 21.3 µM) | 7.3 (≈ 23.5 µM) | 
COc1ccc(CCC(=O)OC/C=C\c2ccc(F)c([N+](=O)[O-])c2)cc1O | 27 (≈ 71.9 µM) |  |  |  |  |  |  | 
O=C1CCc2ccc(O)c(c2)Oc2ccc(cc2)/C=C\CO1 | 5.2 (≈ 17.5 µM) | 2.7 (≈ 9.11 µM) | 6.6 (≈ 22.3 µM) | > 10 | 4.7 (≈ 15.9 µM) | 6 (≈ 20.2 µM) | 4.8 (≈ 16.2 µM) | Activity [2]: inactive; Activity [3]: inactive; Activity [4]: inactive; Activity [5]: inactive; Activity [6]: inactive; Activity [7]: inactive; Activity [8]: inactive; IC50 [19]: > 40 µM; Activity [9]: inactive; solubility ([17]; buffer): 0.5 mg/mL (≈ 1690 µM); Activity [10]: inactive; Activity [11]: inactive
O=C1CCc2ccc(OCc3ccccc3)c(c2)Oc2ccc(cc2)/C=C\CO1 | > 100 |  |  |  |  |  |  | 
O=C(CCc1ccc(OCc2ccccc2)c(O)c1)OC/C=C\c1ccc(F)c([N+](=O)[O-])c1 | > 100 |  |  |  |  |  |  | 
O=C1CCc2ccc(O)c(c2)Oc2ccc(cc2)[C@H]2O[C@@H]2CO1 | 3.3 (≈ 10.6 µM) |  |  |  |  |  |  | IC50 [19]: > 40 µM
COc1ccc(CCC(=O)OC/C=C\c2ccc(Br)cc2)cc1O | > 100 | 8.9 (≈ 22.7 µM) | 16.4 (≈ 41.9 µM) | 17.1 (≈ 43.7 µM) | 18.5 (≈ 47.3 µM) | 16.5 (≈ 42.2 µM) | 16.4 (≈ 41.9 µM) | 
COc1ccc(C[C@@H](O)c2cc(OC)c(OC)c(OC)c2)cc1O [COMBRETASTATIN] | 0.011 (≈ 0.0329 µM) |  |  |  |  |  |  | IC50 [19]: 5 µM
O=C1CCc2ccc(OCc3ccccc3)c(c2)Oc2ccc(cc2)CCCO1 | > 100 |  |  |  |  |  |  | 
O=C1CCc2ccc(OP(=O)([O-])[O-])c(c2)Oc2ccc(cc2)/C=C\CO1.[K+].[K+] |  | 14.4 | 34.5 | 40.6 | 45.2 | 27.8 | 40.1 | solubility ([17]; buffer): > 50 mg/mL
C1COCCN1.C1COCCN1.O=C1CCc2ccc(OP(=O)(O)O)c(c2)Oc2ccc(cc2)/C=C\CO1 | 86.2 | > 10 | > 10 | > 10 | > 10 | > 10 | > 10 | solubility ([17]; water, read-out: solubility): 5 mg/mL
COc1ccc(CCC(=O)OCCCc2ccc(Br)cc2)cc1O | > 100 |  |  |  |  |  |  | 
